# According to patent US10179148B2, “Keratolytic composition with anti-allergic anti-inflammatory properties” (priority 2003, dated 2019):
# System: psoriasis patients
# Test: topical testing of cleansing/topical compositions on psoriasis patients
# Type: in vivo, human
# Conditions: in cleansing liquid along with gentle surfactants sodium laureth sulfate and ammonium laureth sulfate; psoriasis effected patients; 5 patients
# Source text: Most of the cleansing agents contain sodium chloride and/or ammonium chloride and/or potassium chloride.
# This invention is lead by desire for developing a new and innovative treatment, which can be used in the longer periods of time without side effect associated with other products. The Topical Composition given in the example being used for more than 6 months and also tested on other psoriasis patients with encouraging results.
# Though the exact mechanism of action of quaternary ammonium compounds, such as ammonium chloride, and vanilla is not fully understood, actual testing on psoriasis patients have shown encouraging results without side effects associated with steroids and other presently available psoriasis topical applications.
row,Structure (SMILES),keratolytic properties (removing scales)
1,Cl.N [ammonium chloride],showing keratolytic properties by removing scales
2,[Cl-].[Na+] [sodium chloride],not having keratolytic properties
